Reference: patent publication US20130267571A1, “TERPENOID ANALOGUES AND USES THEREOF FOR TREATING NEUROLOGICAL CONDITIONS” (NeuroQuest Inc., priority 2010, published 2013)

Experiments:
[1] = test system: voltage-gated Na+ channels; assay: Sodium (Na+) channel analysis in rat DRG neurons using whole cell patch-clamp; format: cell-based; settings: Na+ currents in isolated rat DRG neurons, 3 min in presence of drug, read-out: IC50 range
Procedure: Isolated DRG neurons were suspended in primary neuron basal media and placed on glass coverslips for incubation in humidified atmosphere of 5% CO2 at 37° C. Coverslips carrying cells was transferred to the bath of an inverted microscope (Zeiss), continuously perfused with oxygenated artificial cerebro-spinal fluid (ACSF) containing (in mM) 124 NaCl, 2.5 KCl, 2 CaCl2, 1 MgSO4, 25 NaHCO3, 1 NaH2PO4, and 10 glucose, at a rate of 2-3 ml/min. Recording of whole-cell membrane currents were made at room temperature. Recording pipette (4-6 MS2) was filled with internal solution containing (in mM) 145 K-gluconate, 5 NaCl, 1 MgCl2, 0.2 EGTA, 10 HEPES, 2 Mg-ATP, 0.1 Na-GTP, and 10 phosphocreatine. To isolate Na^+ currents, DRG neurons were superfused with ACSF containing tetraethylammonium chloride (TEA) 5 mM, cesium chloride (CsCl) 100 μM and cadmium chloride (CdCl) 1 mM, to block potassium and calcium currents. NQ compounds were freshly dissolved in ASCF containing TEA, CsCl and CdCl, prior application via the bath.
For recording Na^+ currents, cells were held at −60 mV before applying a conditioning hyperpolarizing step (50 ms) to −90 mv to reactivate the voltage-gated Na^+ channels. The conditioning pulse was followed by depolarizing (150 ms) test pulses to 50 mV in 10 mV increments. Na^+ currents were recorded in absence, after 3 min in presence of the drugs and after a recovery time of 3 min.

zebrafish embryos = assay: Zebrafish response (anaesthesia) assay, touch response/swim behaviour; format: in vivo; settings: Danio rerio, 1.5 h; complete anaesthesia (scale 1) in 50% of AB wild type embryos (54 hpf), 90 min at 28° C.
From the text: Briefly, the ZEA assay involves applying essential oils, fractions or individual compounds to developmentally staged zebrafish embryos followed by monitoring of embryonic touch response/swim behaviour and evaluation of the dose response relationship for each substance. Using a four point scale to describe the embryonic behaviours (Table 4), initial analysis focused on monitoring and recording these changes and evaluating the level of bioactivity. The effective concentration to generate complete anaesthesia in 50% of the embryos (EC50), were evaluated as follows:
Compounds are tested on developmentally staged AB “wild type” zebrafish embryos (54 hpf+/−2 hpf) at concentrations ranging between 10 and 400 μM.
Each compound is diluted in a 95% ethanol or DMSO carrier to create a working stock solution from which appropriate dilutions are made in standard embryo E3 media.
1000 μl of each concentration or appropriate carrier control are added to 10 wild type AB embryos in a single well of a 24 well plate, in duplicate.
The embryos are incubated for 90 min at 28° C. (optimal temperature for embryonic growth) in the diluted compound.
A four point scale (Table 4) is used to evaluate the touch response and swim behaviour for each embryo in all wells.
The effectiveness of the compound will be based on its ability to generate complete anaesthesia (scale: 1) in 50% of the embryos at a given concentration (EC50).
The EC50 values are calculated using GraphPad Prism® software to analyze the log (dose) response curves.

TRPV1 = TRPV1 (Homo sapiens, UniProt Q8NER1); assay: TRPV1 assay, calcium imaging; format: cell-based
Chain of TRPV1 (Q8NER1 whole entry, species assumed): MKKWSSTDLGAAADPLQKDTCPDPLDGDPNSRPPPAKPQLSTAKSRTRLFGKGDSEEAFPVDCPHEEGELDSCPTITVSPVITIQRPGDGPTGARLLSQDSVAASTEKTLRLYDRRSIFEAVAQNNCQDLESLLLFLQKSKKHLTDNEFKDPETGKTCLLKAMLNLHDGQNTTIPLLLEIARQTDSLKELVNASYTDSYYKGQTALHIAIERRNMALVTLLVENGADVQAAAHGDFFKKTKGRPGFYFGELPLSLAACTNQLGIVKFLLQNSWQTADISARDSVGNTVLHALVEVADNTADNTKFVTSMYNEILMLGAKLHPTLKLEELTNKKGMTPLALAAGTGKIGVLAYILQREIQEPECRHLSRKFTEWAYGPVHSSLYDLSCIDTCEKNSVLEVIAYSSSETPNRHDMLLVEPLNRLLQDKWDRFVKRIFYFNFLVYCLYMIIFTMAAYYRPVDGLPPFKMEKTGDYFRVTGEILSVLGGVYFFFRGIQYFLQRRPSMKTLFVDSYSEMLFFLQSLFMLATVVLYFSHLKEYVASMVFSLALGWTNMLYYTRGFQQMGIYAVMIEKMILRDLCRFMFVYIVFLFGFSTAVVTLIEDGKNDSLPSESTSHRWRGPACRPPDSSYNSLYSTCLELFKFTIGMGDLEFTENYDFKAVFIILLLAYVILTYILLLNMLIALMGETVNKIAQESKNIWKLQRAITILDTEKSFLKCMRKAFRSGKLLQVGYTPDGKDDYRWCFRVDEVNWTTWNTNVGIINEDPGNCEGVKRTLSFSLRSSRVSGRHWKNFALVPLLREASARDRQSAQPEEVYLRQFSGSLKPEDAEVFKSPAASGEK
Procedure: Briefly, cells are seeded into poly-L-lysine-coated, glass-bottom, 24-well plates (1×10^5 cells/well) and incubated overnight under standard culture conditions to achieve the desired confluency. Culture media is removed and cells washed twice with HBS prior to incubation for 15 to 60 min at 37° C. with a labelling mixture comprised of Fura-2-AM and pluronic acid in HBS. Data collection occurs over an eight minute period and follows the same general sequence. Following loading, cells are stimulated by addition of 1 μM of capsaicin agonist for 2 min, after which a concentration series of the test sample (e.g., (0.5, 5, 10, 50 μg/ml) is added and imaging continued for an additional 5 min. Capsazepine (20 μM) serves as a known reference antagonist, while cells that are mock-treated or receive vehicle (e.g., DMSO) alone serve as negative controls. For imaging, plates are placed on the stage of an inverted epifluorescence microscope (e.g. Axiovert 200, Zeiss) equipped with a CCD digital camera (e.g., Axiocam MRm, Zeiss). For each well of the plate, a sequence of image pairs (excitation at 340 nm and 380 nm) are collected to capture intracellular calcium flux. Image sequences are analyzed in Image) (NIH) and average pixel intensities calculated for six representative cells in each test condition to achieve mean fluorescence.

`CC(C)=CCC/C(C)=C/CNC(=O)c1ccccc1` [NQ 2982, (E)-N-(3,7-dimethylocta-2,6-dienyl)benzamide] showed an IC50 [1] of 1 to 5 mM and an EC50 (zebrafish embryos) of 103 µM.

With `CNC(=O)/C=C(\C)CCC=C(C)C` [NQ 2991, (E)-N,3,7-trimethylocta-2,6-dienamide] the IC50 [1] was 1 to 5 mM.

`CNS(=O)(=O)/C=C(/C)CCC=C(C)C` [NQ 3061, (Z)-N,2,6-trimethylhepta-1,5-diene-1-sulfonamide] was tested, and the IC50 [1] was 0.1 to 1 mM.

Molecule `CC(C)=CCC/C(C)=C/C(O)C(C)C` (centres unmarked) [NQ 3083, (E)-2,5,9-trimethyldeca-4,8-dien-3-ol] has an IC50 [1] of 1 to 5 mM.

Molecule `CC(C)=CCC/C(C)=C/C(O)C(F)(F)F` (centres unmarked) [NQ 3065, (E)-1,1,1-trifluoro-4,8-dimethylnona-3,7-dien-2-ol] has an IC50 [1] of 0.1 to 1 mM.

`CC(C)=CCC/C(C)=C/C=O` [NQ 2983, (E)-3,7-dimethylocta-2,6-dienal] gave an IC50 [1] of 1 to 5 mM, an IC50 (TRPV1; Ca2+ imaging (Fura-2-AM) after stimulation with 1 μM capsaicin) of 493 to 657 µM and an IC50 (TRPV1; FIG. 2, Ca2+ imaging in HEK-TRPV cells) of 493 µM. It also gave an EC50 (zebrafish embryos) of 113 µM.

In the case of `CCCC(N)/C=C(\C)CCC=C(C)C` (centres unmarked) [NQ 3081, (E)-6,10-dimethylundeca-5,9-dien-4-amine], the IC50 [1] is reported as less than 0.1 mM.

With `CC(C)=CCC/C(C)=C\C(=O)O` [NQ 3001, (Z)-3,7-dimethylocta-2,6-dienoic acid] the IC50 [1] was greater than 10 mM.

For `CC(C)=CCC/C(C)=C/S(=O)(=O)Nc1ccccc1` [NQ 3070, (E)-2,6-dimethyl-N-phenylhepta-1,5-diene-1-sulfonamide], the IC50 [1] was 0.1 to 1 mM.

Work on `CCC(N)/C=C(\C)CCC=C(C)C` (centres unmarked) [NQ 3078, (E)-5,9-dimethyldeca-4,8-dien-3-amine] yielded an IC50 [1] of less than 0.1 mM.

`CNS(=O)(=O)/C=C(\C)CCC=C(C)C` [NQ 3060, (E)-N,2,6-trimethylhepta-1,5-diene-1-sulfonamide] was tested, and the IC50 [1] was 1 to 5 mM.

In the case of `CC(C)=CCCC(C)=Cc1nn[nH]n1` [NQ 3045, 5-(2,6-dimethylhepta-1,5-dien-1-yl)-2H-tetrazole], the IC50 [1] is reported as 1 to 5 mM.

Molecule `CC(C)=CCC/C(C)=C/S(=O)(=O)NCC(F)(F)F` [NQ 3064, (E)-2,6-dimethyl-N-(2,2,2-trifluoroethyl)hepta-1,5-diene-1-sulfonamide] has an IC50 [1] of 1 to 5 mM.

In the case of `CC(C)=CCC/C(C)=C/C[S+](C)[O-]` (centres unmarked) [NQ 3054, (E)-3,7-dimethyl-1-(methylsulfinyl)octa-2,6-diene], the IC50 [1] is reported as 1 to 5 mM.

`CC(C)=CCCC(C)=CC(=O)O` [NQ 2978, 3,7-dimethyloct-2,6-dienoic acid] showed an IC50 [1] greater than 10 mM and an EC50 (zebrafish embryos) of 71.1 µM.

In the case of `CC(C)=CCC/C(C)=C/C(N)C(C)C` (centres unmarked) [NQ 3082, (E)-2,5,9-trimethyldeca-4,8-dien-3-amine], the IC50 [1] is reported as less than 0.1 mM.

`CC(C)=CCC/C(C)=C/C(=O)C(F)(F)F` [NQ 3066, (E)-1,1,1-trifluoro-4,8-dimethylnona-3,7-dien-2-one] showed an IC50 [1] of 1 to 5 mM.

`CC(C)=CCC/C(C)=C/COCc1ccccc1` [NQ 2977, (E)-((3,7-dimethylocta-2,6-dienyloxy)methyl)benzene] was tested, and the IC50 [1] was 1 to 5 mM.

Work on `CC(C)=CCC/C(C)=C/C(N)=O` [NQ 2992, (E)-3,7-dimethylocta-2,6-dienamide] yielded an IC50 [1] of 0.1 to 1 mM.

`CC(C)=CCC/C(C)=C/S(=O)(=O)N(C)C` [NQ 3051, (E)-N,N,2,6-tetramethylhepta-1,5-diene-1-sulfonamide] gave an IC50 [1] of 0.1 to 1 mM.

Work on `CC(C)=CCC/C(C)=C/S(=O)(=O)NCc1ccccc1` [NQ 3071, (E)-N-benzyl-2,6-dimethylhepta-1,5-diene-1-sulfonamide] yielded an IC50 [1] of 0.1 to 1 mM.

Work on `CC(C)=CCC/C(C)=C/CN(C)C` [NQ 2990, (E)-N,N,3,7-tetramethylocta-2,6-dien-1-amine] yielded an IC50 [1] of 1 to 5 mM.

Work on `CC(C)=CCC/C(C)=C/C(C)N` (centres unmarked) [NQ 3079, (E)-4,8-dimethylnona-3,7-dien-2-amine] yielded an IC50 [1] of 0.1 to 1 mM.

Molecule `CC(C)=CCC/C(C)=C/C(=O)N(C)O` [NQ 3055, (E)-N-hydroxy-N,3,7-trimethylocta-2,6-dienamide] has an IC50 [1] of 0.1 to 1 mM.

`CC(C)=CCC/C(C)=C\[S+](C)[O-]` (centres unmarked) [NQ 3062, (Z)-2,6-dimethyl-1-(methylsulfinyl)hepta-1,5-diene] showed an IC50 [1] of 1 to 5 mM.

Molecule `CC(C)=CCC/C(C)=C\S(=O)(=O)NCC(F)(F)F` [NQ 3069, (Z)-2,6-dimethyl-N-(2,2,2-trifluoroethyl)hepta-1,5-diene-1-sulfonamide] has an IC50 [1] of 0.1 to 1 mM.

`CC(C)=CCC/C(C)=C/CN` (single isomer, unassigned) [NQ 2981, (E)-3,7-dimethylocta-2,6-dien-1-amine] was tested, and the IC50 [1] was less than 0.1 mM and the EC50 (zebrafish embryos) was 217 µM.

With `CC(C)=CCC/C(C)=C/C(O)(C(F)(F)F)C(F)(F)F` [NQ 3067, (E)-1,1,1-trifluoro-4,8-dimethyl-2-(trifluoromethyl)nona-3,7-dien-2-ol] the IC50 [1] was 0.1 to 1 mM.

Molecule `CC(C)=CCC/C(C)=C/C(=O)Nc1ccccc1` [NQ 2986, (E)-3,7-dimethyl-N-phenylocta-2,6-dienamide] has an IC50 [1] of 5 to 10 mM and an EC50 (zebrafish embryos) of 449 µM.

`CC(=O)NC/C=C(\C)CCC=C(C)C` [NQ 2985, (E)-N-(3,7-dimethylocta-2,6-dienyl)acetamide] showed an IC50 [1] of 1 to 5 mM and an EC50 (zebrafish embryos) of 264 µM.

`CNC/C=C(\C)CCC=C(C)C` [NQ 3007, (E)-N,3,7-trimethylocta-2,6-dien-1-amine] showed an IC50 [1] of 1 to 5 mM.

In the case of `CON(C)C(=O)/C=C(\C)CCC=C(C)C` [NQ 3052, (E)-N-methoxy-N,3,7-trimethylocta-2,6-dienamide], the IC50 [1] is reported as 0.1 to 1 mM.

`CC(C)=CCC/C(C)=C\S(=O)(=O)N(C)C` [NQ 3050, (Z)-N,N,2,6-tetramethylhepta-1,5-diene-1-sulfonamide] showed an IC50 [1] of 0.1 to 1 mM.

`CC(C)=CCC/C(C)=C/C(=O)O` [NQ 2984, (E)-3,7-dimethylocta-2,6-dienoic acid] gave an IC50 [1] of 1 to 5 mM and an EC50 (zebrafish embryos) greater than 200 µM.

Work on `CC(C)=CCC/C(C)=C/C(N)Cc1ccccc1` (centres unmarked) [NQ 3089, (E)-4,8-dimethyl-1-phenylnona-3,7-dien-2-amine] yielded an IC50 [1] of less than 0.1 mM.

Molecule `COC/C=C(\C)CCC=C(C)C` [NQ 2976, (E)-1-methoxy-3,7-dimethylocta-2,6-diene] has an IC50 [1] of 1 to 5 mM and an EC50 (zebrafish embryos) of 874 µM.

`CC(C)=CCC/C(C)=C/S(C)(=O)=O` [NQ 3047, (E)-2,6-dimethyl-1-(methylsulfonyl)hepta-1,5-diene] gave an IC50 [1] of 1 to 5 mM.

`CC(C)=CCC/C(C)=C/[S+](C)[O-]` (centres unmarked) [NQ 3057, (E)-2,6-dimethyl-1-(methylsulfinyl)hepta-1,5-diene] gave an IC50 [1] of 1 to 5 mM.

`CC(C)=CCC/C(C)=C/S(N)(=O)=O` [NQ 3063, (E)-2,6-dimethylhepta-1,5-diene-1-sulfonamide] gave an IC50 [1] of 1 to 5 mM.

For `CC(C)=CCC/C(C)=C/CS(C)(=O)=O` [NQ 3053, (E)-3,7-dimethyl-1-(methylsulfonyl)octa-2,6-diene], the IC50 [1] was 1 to 5 mM.

Work on `CC(C)=CCC/C(C)=C/C(=O)N(C)C` [NQ 2988, (E)-N,N,3,7-tetramethylocta-2,6-dienamide] yielded an IC50 [1] of 1 to 5 mM.

Molecule `CC(C)=CCC/C(C)=C/C(N)c1ccccc1` (centres unmarked) [NQ 3085, (E)-3,7-dimethyl-1-phenylocta-2,6-dien-1-amine] has an IC50 [1] of less than 0.1 mM.

In the case of `CC(C)=CCC/C(C)=C/CNC(=O)c1ccccc1O` [NQ 2987, (E)-N-(3,7-dimethylocta-2,6-dienyl)-2-hydroxybenzamide], the IC50 [1] is reported as 1 to 5 mM and the EC50 (zebrafish embryos) is reported as 134 µM.

Work on `CC(C)=CCC/C(C)=C/C(N)CCCO` (centres unmarked) [NQ 3084, (E)-4-amino-6,10-dimethylundeca-5,9-dien-1-ol] yielded an IC50 [1] of 0.1 to 1 mM.

`CC(C)=CCC/C(C)=C\C=O` [NQ 3000, (Z)-3,7-dimethylocta-2,6-dienal] showed an IC50 [1] of 5 to 10 mM.
